Results published in US7307098B2, “Indole derivatives and drugs containing the same” (Meiji Dairies Corporation, priority 2002, dated 2007).

tested on: neurospheres which are clusters of neural stem cells; assay: Test Example 1: differentiation of neurospheres into neurons (immunofluorescence, confocal microscope); assay type: cell-based; details: Mus musculus, Neural stem cell; test compound 10^−6M, cultivation typically 24 hours, Anti-MAP2 labeling of neurons, control = 100; read-out: Percentage of neuron in relation to control
Description: Neural stem cell was produced from […] in accordance with the method of Weiss and Reynolds (1996). More specifically, striate body was extirpated from mouse embryo, and the cells were dispersed in a culture medium containing EGF (20 ng/mL). The cells were cultured under the conditions of 5% CO2 and 37° C. for 5 days. The culture was then centrifuged at 400 rpm in Dissociation Medium (manufactured by Sigma) for 5 minutes, and neurospheres which are cluster of the neural stem cells were obtained. The neurospheres were dispersed in the culture medium, and cultivation was conducted under the same conditions to produce secondary neurospheres.
A sterilized cover glass was placed in the well of 24 well plate, treated overnight with polyornithine solution (30 μg/mL), and washed three times with phosphate buffered saline. Neurospheres were inoculated on the cover glass at 20 to 50 cells/cover glass. The test compound that has been adjusted to the concentration of 10^−6M with ethanol was applied to the cover glass, and the cultivation was continued for a period sufficient for differentiation of the neurospheres (typically 24 hours). The indole derivatives obtained in the Examples were used for the test compounds, and the control cells were cultivated without using such test compound.
Sufficiently differentiated neurospheres were fixed with 4% p-formaldehyde, washed with phosphate buffered saline, and after adding Triton-X100, washed again with phosphate buffered saline. Anti-MAP2 (2a+2b) (Sigma) which is a mouse monoclonal antibody used for labeling neurons and Anti-O4 (Boeringher) which is a mouse monoclonal antibody used for labeling oligodendrocytes, and Anti-GFAP (DAKO) which is a rabbit monoclonal antibody used for labeling astrocytes were added, and the cultivation was continued at room temperature for 1 hour or overnight at 4° C. Anti-mouse IgM antibody and fluorescence indicator were added, and cultivation was continued at room temperature for 1 hour. After washing with phosphate buffered saline, the cover glass was placed on a confocal microscope to observe the differentiation of the neurospheres.

Compared with COc1ccc2[nH]c(CCCCCCCCCCCCCCCCO)cc2c1 [1-2a, n=16, 16-(5-methoxy-1H-indole-2-yl)-hexadecane-1-ol], COc1cccc2cc(CCCCCCCCCCCCCCCCO)[nH]c12 [1-2c, n=16, 16-(7-methoxy-1H-indole-2-yl)-hexadecane-1-ol] is lower in activity at 1 µM: 135% for the first, 128% for the second.

Going from COc1ccc2[nH]cc(CCCCCCCCCCCCCCCCO)c2c1 [1-1a, n=16, 16-(5-methoxy-1H-indole-3-yl)-hexadecane-1-ol] to COc1ccc2[nH]cc(CCCCCCCCCCCCCCCCCCO)c2c1 [1-1a, n=18, 18-(5-methoxy-1H-indole-3-yl)-octadecane-1-ol], the activity at 1 µM rises from 168% to 169%.

Compared with COc1cccc2[nH]c(CCCCCCCCCCCCCCCCO)cc12 [1-2b, n=16, 16-(4-methoxy-1H-indole-2-yl)-hexadecane-1-ol], COc1cccc2[nH]c(CCCCCCCCCCCCCCO)cc12 [1-2b, n=14, 14-(4-methoxy-1H-indole-2-yl)-tetradecane-1-ol] is lower in activity at 1 µM: 184% for the first, 147% for the second.

Compared with COc1ccc2c(CCCCCCCCCCCCCCCCO)c[nH]c2c1 [1-1c, n=16, 16-(6-methoxy-1H-indole-3-yl)-hexadecane-1-ol], COc1ccc2[nH]cc(CCCCCCCCCCCCCCO)c2c1 [1-1a, n=14, 14-(5-methoxy-1H-indole-3-yl)-tetradecane-1-ol] is higher in activity at 1 µM: 135% for the first, 143% for the second.

COc1cccc2[nH]cc(CCCCCCCCCCCCCCCCO)c12 [1-1b, n=16, 16-(4-methoxy-1H-indole-3-yl)-hexadecane-1-ol] was tested, and the activity at 1 µM was 133%.
